# Measurements from ChEMBL document CHEMBL1201862, “PubChem BioAssay data set” (2004).
#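 Following 48 hours of exposure in 96-well plates, responses at five concentrations were used to interpolate endpoints linearly. The concentration for 50% growth inhibition is given as GI50.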 The source made the active and inactive calls. Cut-off read from the data, not from the text of the source: active = GI50 up to about 1.1 µM and inactive = higher.
# Columns and labels:
# Experiment in all cases: NCI anticancer screen, dose series, 48 h
# NCI-H460 = test system: NCI-H460
# TK-10 = test system: TK-10
# UO-31 = test system: UO-31
# OVCAR-4 = test system: OVCAR-4
# UACC-62 = test system: UACC-62
# HOP-62 = test system: HOP-62
# CCRF-CEM = test system: CCRF-CEM
# CAKI-1 = test system: CAKI-1
# LOX IMVI = test system: LOX IMVI
# ACHN = test system: ACHN
# MOLT-4 = test system: MOLT-4
# KM12 = test system: KM12
# HOP-92 = test system: HOP-92
# SR = test system: SR
# SF-268 = test system: SF-268
# NCI-H23 = test system: NCI-H23
# HT-29 = test system: HT-29
# RXF 393 = test system: RXF 393
Compound,GI50 (NCI-H460),GI50 (TK-10),GI50 (UO-31),GI50 (OVCAR-4),GI50 (UACC-62),GI50 (HOP-62),GI50 (CCRF-CEM),GI50 (CAKI-1),GI50 (LOX IMVI),GI50 (ACHN),GI50 (MOLT-4),GI50 (KM12),GI50 (HOP-92),GI50 (SR),GI50 (SF-268),GI50 (NCI-H23),GI50 (HT-29),GI50 (RXF 393)
Cc1nc2ccc(N)cc2nc1O,> 100 µM (inactive),> 100 µM (inactive),> 100 µM (inactive),> 100 µM (inactive),> 100 µM (inactive),> 100 µM (inactive),> 100 µM (inactive),> 100 µM (inactive),> 100 µM (inactive),> 100 µM (inactive),> 100 µM (inactive),> 100 µM (inactive),5.89 µM (inactive),,,,,
COc1cccc2c1N[S@](=O)S2,,> 100 µM (inactive),42 µM (inactive),,38.6 µM (inactive),,36.7 µM (inactive),> 100 µM (inactive),50.8 µM (inactive),> 100 µM (inactive),42.1 µM (inactive),> 100 µM (inactive),> 100 µM (inactive),70.6 µM (inactive),76 µM (inactive),> 100 µM (inactive),> 100 µM (inactive),
CC(=O)OCC1(C)C(OC(C)=O)CCC2(C)C(CC(OC(C)=O)C3=CCOC3=O)C(O)(CO)CCC12 (stereo unspecified),> 100 µM (inactive),> 100 µM (inactive),> 100 µM (inactive),> 100 µM (inactive),> 100 µM (inactive),> 100 µM (inactive),53.1 µM (inactive),> 100 µM (inactive),> 100 µM (inactive),> 100 µM (inactive),,> 100 µM (inactive),> 100 µM (inactive),,> 100 µM (inactive),> 100 µM (inactive),> 100 µM (inactive),> 100 µM (inactive)
[O-][S+]1c2ccccc2N=C(c2cccs2)CC1c1ccccc1O (stereo unspecified),> 100 µM (inactive),> 100 µM (inactive),> 100 µM (inactive),> 100 µM (inactive),56.2 µM (inactive),97.5 µM (inactive),> 100 µM (inactive),> 100 µM (inactive),> 100 µM (inactive),> 100 µM (inactive),> 100 µM (inactive),93.5 µM (inactive),,,> 100 µM (inactive),67.9 µM (inactive),> 100 µM (inactive),63.1 µM (inactive)
CCCCn1c2ccccc2c2ccc3c(c21)C(=O)C=CC3=O,> 100 µM (inactive),> 100 µM (inactive),62.2 µM (inactive),> 100 µM (inactive),> 100 µM (inactive),> 100 µM (inactive),,> 100 µM (inactive),> 100 µM (inactive),> 100 µM (inactive),54.8 µM (inactive),> 100 µM (inactive),> 100 µM (inactive),> 100 µM (inactive),> 100 µM (inactive),> 100 µM (inactive),0.991 µM (active),
CCCOC(=O)C1CCC(=O)N1C(=O)C(Cl)Cl (stereo unspecified),> 100 µM (inactive),> 100 µM (inactive),> 100 µM (inactive),> 100 µM (inactive),> 100 µM (inactive),> 100 µM (inactive),> 100 µM (inactive),> 100 µM (inactive),> 100 µM (inactive),> 100 µM (inactive),> 100 µM (inactive),> 100 µM (inactive),> 100 µM (inactive),,> 100 µM (inactive),> 100 µM (inactive),> 100 µM (inactive),
Cc1ccc(-c2cc(=O)c3cc(C)c(C)c(C(=O)O)c3o2)cc1[N+](=O)[O-],> 100 µM (inactive),> 100 µM (inactive),> 100 µM (inactive),> 100 µM (inactive),> 100 µM (inactive),,> 100 µM (inactive),> 100 µM (inactive),> 100 µM (inactive),> 100 µM (inactive),> 100 µM (inactive),> 100 µM (inactive),,,> 100 µM (inactive),> 100 µM (inactive),> 100 µM (inactive),> 100 µM (inactive)
COC(=O)C1(C)CCc2c(OC)ccc(OC)c2C1=O (stereo unspecified),,> 100 µM (inactive),76.2 µM (inactive),> 100 µM (inactive),> 100 µM (inactive),> 100 µM (inactive),> 100 µM (inactive),,> 100 µM (inactive),> 100 µM (inactive),> 100 µM (inactive),> 100 µM (inactive),,> 100 µM (inactive),> 100 µM (inactive),> 100 µM (inactive),,> 100 µM (inactive)
Cc1ccccc1/C=N/C12CC3CC(CC(C3)C1)C2,> 100 µM (inactive),> 100 µM (inactive),> 100 µM (inactive),> 100 µM (inactive),> 100 µM (inactive),> 100 µM (inactive),> 100 µM (inactive),> 100 µM (inactive),> 100 µM (inactive),> 100 µM (inactive),> 100 µM (inactive),> 100 µM (inactive),> 100 µM (inactive),,> 100 µM (inactive),> 100 µM (inactive),> 100 µM (inactive),> 100 µM (inactive)
O=C1C[C@@H]2[C@@H](CCC23CC3)N1,> 100 µM (inactive),> 100 µM (inactive),> 100 µM (inactive),> 100 µM (inactive),> 100 µM (inactive),> 100 µM (inactive),> 100 µM (inactive),> 100 µM (inactive),> 100 µM (inactive),,> 10 µM (inactive),> 100 µM (inactive),,,> 100 µM (inactive),> 100 µM (inactive),> 100 µM (inactive),> 100 µM (inactive)
C=CCn1c(=O)c(C(=O)NC(=O)OCC)cn(C2CCCCC2)c1=O,> 100 µM (inactive),> 100 µM (inactive),> 100 µM (inactive),> 100 µM (inactive),> 100 µM (inactive),> 100 µM (inactive),> 100 µM (inactive),> 100 µM (inactive),> 100 µM (inactive),> 100 µM (inactive),> 100 µM (inactive),> 100 µM (inactive),> 100 µM (inactive),> 100 µM (inactive),,> 100 µM (inactive),> 100 µM (inactive),
COC(=O)C(C(=O)C(=O)Nc1ccc([N+](=O)[O-])cc1[N+](=O)[O-])c1nc2ccc(Cl)cc2nc1O (stereo unspecified),> 100 µM (inactive),> 100 µM (inactive),41.1 µM (inactive),> 100 µM (inactive),> 100 µM (inactive),> 100 µM (inactive),> 100 µM (inactive),> 100 µM (inactive),> 100 µM (inactive),65 µM (inactive),73.1 µM (inactive),> 100 µM (inactive),> 100 µM (inactive),,> 100 µM (inactive),77.8 µM (inactive),> 100 µM (inactive),30.5 µM (inactive)
Cc1ccc(N2C(=O)CS/C2=C(\C#N)c2nc3ccccc3[nH]2)cc1,> 100 µM (inactive),> 100 µM (inactive),> 100 µM (inactive),> 100 µM (inactive),16.1 µM (inactive),> 100 µM (inactive),> 100 µM (inactive),> 100 µM (inactive),> 100 µM (inactive),> 100 µM (inactive),> 100 µM (inactive),> 100 µM (inactive),> 100 µM (inactive),> 100 µM (inactive),> 100 µM (inactive),> 100 µM (inactive),,
